# Experimental data as given in patent publication US12485117B2, “Compositions and methods for activating signaling through the CB1 cannabinoid receptor for treating and preventing diseases and disorders characterized by abnormal cellular accumulation of sphingolipids such as sphingomyelin” (Wylder Nation Foundation, priority 2018, dated 2025).
# Tests used:
# Type in all cases: cell-based, mouse
# [1] = test system: wildtype cultured neurons; assay: Sphingomyelin levels in wildtype cultured neurons; conditions: wildtype (FIG. 5D)
# Text: (§1) FIGS. 5A-5D show sphingomyelin and endocannabinoid levels in cultured primary hippocampal neurons and hippocampal tissue, respectively, from ASMko and wildtype mice.
# It has been shown that mGluR activation promotes 2-AG synthesis and CB1 stimulation (Maccarrone et al., Nat Neurosci 2008). We therefore sought to determine whether activation of mGluR5 with the allosteric activator CDPPB might induce sphingomyelin breakdown in ASMko neurons. […] Thus, the effect of decreased CB1 expression might be further exacerbated by decrease in endogenous endocannabinoid signaling, at least via 2-AG.
# [2] = test system: cultured primary hippocampal neurons from ASMko mice; assay: Sphingomyelin levels by enzymatic assay in cultured primary hippocampal neurons from ASMko mice
# Text: as §1
# Statistical significance Student's t-test, *P<0.05, **P<0.005, n=3 independent cultures.
# Statistical significance Student's t-test, **P<0.005, n=3 independent cultures.
# Anandamide (AEA) is the major endogenous CB1 ligand. We therefore tested whether increased levels of anandamide affected sphingomyelin levels in cultured primary hippocampal neurons from ASMko mice. Anandamide was increased in two ways: • 1. By incubating the neuronal cultures with exogenous anandamide; and • 2. By incubating the neuronal cultures with PF-04457845, which is an inhibitor of the anandamide hydrolytic enzyme FAAH. Inhibition of FAAH causes accumulation of anandamide by inhibiting FAAH-mediated hydrolyzation of anandamide.
# The following experiments were performed in three independent cultures of hippocampal neurons derived from ASMko mice. Treatments were done at 11-13 days in vitro when these cells are considered mature and functional.
# To set the optimal conditions for such hydrolysis in terms of concentration and time of incubation, anandamide was added to the culture medium of mature ASMko hippocampal neurons at 0, 5, 25, 50 and 100 μM for 30 minutes or 1 hour. […] The optimal conditions for SM degradation were in a range of concentration of 25-50 μM for 1 hour. […] We therefore decided to use 25 μM anandamide for 1-hour incubation time in our next experiments.
# Similar to the anandamide dose/time response experiment above, we performed another dose response experiment using URB597 (URB), an inhibitor of the anandamide-hydrolyzing enzyme FAAH, to be used as reference for the other FAAH inhibitors. The experiments were done in the presence or absence of exogenous anandamide. URB was added to the culture medium of ASMko mature neurons at 0, 5, 25 and 50 μM for 1 hour with or without □□ μM anandamide.
# We next compared URB efficacy to reduce SM levels with that of other FAAH inhibitors PF-04457845 (PF) and JNJ-1661010 (JNJ).
# [3] = test system: permeabilized ASMko neurons; assay: Lysenin staining of SM in intracellular compartments of permeabilized ASMko neurons; conditions: 1 hour at 50 μM (FIG. 9)
# Method: Statistical significance Student's t-test, *P<0.05, n=3 independent cultures.
# To determine whether SM hydrolysis induced by FAAH inhibitors was taking place not only at the cell surface, but also in intracellular compartments, we performed staining with lysenin, a worm toxin that specifically binds to SM, in permeabilized ASMko neurons non-treated or treated with anandamide, URB, PF-04457845 or JNJ for 1 hour at 50 μM.
# [4] = test system: ASMko cultured neurons; assay: TUNEL assay of neuronal death in ASMko cultured neurons; conditions: 50 μM for 1 hour
# Method: FIG. 10B is a graph showing mean±SEM percentage of apoptotic cells, measured by TUNEL assay, with respect to the positive control in which the cells were treated with H202.
# The percentage of dying neurons showing DNA fragmentation was 5-8% in the treated ASMko cultures similar to the non-treated ones.
# [5] = test system: ASMko cultured neurons; assay: MAP2 immunofluorescence of dendrites in ASMko cultured neurons; conditions: 50 μM for 1 hour
structure (smiles),measurement,setting,value
"N#Cc1cccc(C(=O)Nc2cc(-c3ccccc3)nn2-c2ccccc2)c1 [CDPPB, 3-Cyano-N-(1,3-diphenyl-1H-pyrazol-5-yl)benzamide]",sphingomyelin levels,[1],did not affect sphingomyelin levels
same,sphingomyelin levels,"[2]; 15 μM, ASMko cultured neurons (FIG. 5D)",significant decreases in sphingomyelin levels
Cl.Cl.O=C(/C=C/c1ccc(/C=C/C(=O)Nc2ccc(C3=NCCN3)cc2)cc1)Nc1ccc(C2=NCCN2)cc1 [GW4869],effect of co-incubation with the neutral sphingomyelinase inhibitor on the sphingomyelin reduction by anandamide or PF-04457845,"[2]; ASMko neurons, 1 hour (FIG. 5A)",prevented
O=C(Nc1ccccc1)N1CCN(c2nc(-c3ccccc3)ns2)CC1 [JNJ-1661010],SM levels in intracellular compartments (lysenin staining),[3],variable tendency to SM reduction that was not statistically significant
same,neuronal death as assessed by TUNEL,[4],did not induce neuronal death
same,"morphology, length, appearance of dendrites (MAP2)",[5],"did not alter the morphology, length or homogeneous appearance of dendrites"
same,SM hydrolysis,[2]; 50 μM and 1 hour (FIG. 8),promoted SM hydrolysis
NC(=O)c1cccc(-c2cccc(OC(=O)NC3CCCCC3)c2)c1 [URB597],SM levels in intracellular compartments (lysenin staining),[3],significantly reduced SM levels
same,neuronal death as assessed by TUNEL,[4],did not induce neuronal death
same,"morphology, length, appearance of dendrites (MAP2)",[5],"did not alter the morphology, length or homogeneous appearance of dendrites"
same,"SM levels, dose response","[2]; 0, 5, 25 and 50 μM for 1 hour, without exogenous anandamide (FIG. 7)",dose dependent reduction of SM levels
same,SM hydrolysis,[2]; 50 μM and 1 hour (FIG. 8),promoted SM hydrolysis
same,efficacy to reduce SM levels compared among FAAH inhibitors,[2]; 50 μM and 1 hour (FIG. 8),most reliable and efficient
CCCCC/C=C\C/C=C\C/C=C\C/C=C\CCCC(=O)NCCO [anandamide],SM levels in intracellular compartments (lysenin staining),[3],variable tendency to SM reduction that was not statistically significant
same,neuronal death as assessed by TUNEL,[4],did not induce neuronal death
same,"morphology, length, appearance of dendrites (MAP2)",[5],"did not alter the morphology, length or homogeneous appearance of dendrites"
same,"SM hydrolysis, dose and time response","[2]; 0, 5, 25, 50 and 100 μM for 30 minutes or 1 hour (FIG. 6)",induced SM hydrolysis in a dose and time dependent manner
same,SM reduction at very high concentration,[2]; 100 μM,SM reduction was prevented
same,optimal concentration for SM degradation,[2]; 1 hour,25 to 50 µM
same,sphingomyelin levels,"[2]; ASMko neurons, 1 hour incubation (FIG. 5A)",reduced sphingomyelin levels
same,effect of addition of exogenous anandamide on SM hydrolysis by FAAH inhibitors,"[2]; FAAH inhibitors at 50 μM, 1 hour",did not further enhance SM hydrolysis
same,SM reduction with URB and anandamide versus URB alone,"[2]; URB concentrations other than the lowest, 1 hour",SM reduction was similar
same,effect of anandamide addition on SM reduction by URB,"[2]; lowest URB concentration, 1 hour",synergized the action of URB
